According to patent publication US6239128A, “Indole-2,3-dione-3-oxime derivatives for therapeutic use” (Neurosearch A/S, priority 1998, dated 2001):

Target: AMPA receptor
Assay: in vitro receptor affinity test: inhibition of specific binding of ^3 H-AMPA
Design: species or system male Wistar rats (cerebral cortex)
Details: rat cerebral cortex membranes; ^3 H-AMPA 5 nM; 30 minutes at 2° C.; 30 mM Tris-HCl, 2.5 mM CaCl2, 100 mM KSCN, pH 7.4; read-out: IC50 (the concentration (μM) of the test substance which inhibits the specific binding of ^3 H-AMPA by 50%)
From the text: In an in vitro activity (receptor affinity) test, the chemical compounds of the present invention have been tested for their affinity for the AMPA receptor.
L-glutamate (GLU) is the major excitatory neurotransmitter in the mammalian central nervous system. From electro-physiological- and binding studies, there appear to be at least three subtypes of GLU receptors, tentatively named N-methyl-D-aspartate (NMDA) receptors, quisqualate receptors and kainate receptors. AMPA has been known for several years to be a potent and selective agonist at the traditionally named quisqualate receptors. Activation of quisqualate receptors by AMPA is associated with Na^+ influx and K^+ efflux leading to depolarisation. ^3 H-AMPA is a selective radioligand for labelling the ionotropic quisqualate (AMPA) receptors.
Preparations are performed at 0-4° C. unless otherwise indicated. Cerebral cortex from male Wistar rats (150-200 g) is homogenised for 5-10 sec in 20 ml Tris-HCl (30 mM, pH 7.4) using an Ultra-Turrax™ homogeniser. The suspension is centrifuged at 27,000×g for 15 minutes and the pellet is washed three times with buffer (centrifuged at 27,000×g for 10 minutes). The washed pellet is homogenised in 20 ml of buffer and incubated on a water bath (of 37° C) for 30 minutes to remove endogenous glutamate and then centrifuged for 10 minutes at 27,000×g. The pellet is then homogenised in buffer and centrifuged at for 10 minutes at 27,000×g. The final pellet is resuspended in 30 ml buffer and the preparation is frozen and stored at -20° C.
The membrane preparation is thawed and centrifuged at 2° C. for 10 minutes at 27,000×g. […] Non-specific binding is determined using L-glutamate (0.6 mM, final concentration).
After incubation the 550 μl samples are added 5 ml of ice-cold buffer and poured directly onto Whatman™ GF/C glass fibre filters under suction and immediately washed with 5 ml of ice-cold buffer. […] The amount of radioactivity on the filters is determined by conventional liquid scintillation counting. […]

`CN1CCc2c(-c3ccc(S(=O)(=O)N(C)C)cc3)cc3c(c2C1)NC(=O)C3=NOC1CCOC1=O` (stereo not drawn) [8-methyl-5-(4-(N,N-dimethylsulfamoyl)phenyl)-6-7-8-9-tetrahydro-1H-pyrrolo[3,2-h]-isoquinoline-2,3-dione-3-O-(3-(2-oxo)tetrahydrofuryl)oxime] and `CCOC(=O)CON=C1C(=O)Nc2c1cc(-c1ccc(S(=O)(=O)N(C)C)cc1)c1c2CN(C)CC1` [8-methyl-5-(4-(N,N-dimethylsulphamoyl)phenyl-6,7,8,9-tetrahydro-1H-pyrrolo[3,2-h]isoquinoline-2,3-dione-3-O-(ethoxycarbonylmethyl)oxime] are within 1.5-fold of each other in IC50: 0.15 µM for the first, 0.1 µM for the second.

`CN1CCc2c(-c3ccc(S(=O)(=O)N(C)C)cc3)cc3c(c2C1)NC(=O)C3=NOC(CCO)C(=O)O` (stereo not drawn) [8-methyl-5-(4-(N,N-dimethylsulfamoyl)phenyl)-6-7-8-9-tetrahydro-1H-pyrrolo[3,2-h]isoquinoline-2,3-dione-3-O-(4-hydroxybutyric acid-2-yl)oxime] was tested, and the IC50 was 0.05 µM.
